Test results taken from patent US10131690B2, “C6S specific transporter molecules” (PHI PHARMA SA, priority 2014, dated 2018).
Where a SMILES comes first, the peptide text is derived from it. Where no end group is shown, it is not given here. [ ]: non-standard residue; d: D form. 3'AdT = not defined here

How the values were obtained:
[1] = stability in fetal calf serum (estimation of in vivo stability); type: in vitro ADME; conditions: 37° C.; for degradation in fetal calf serum: 6 hr
Description: The stability of peptides of the invention was estimated by mixing the peptides with fetal calf serum and incubating at 37° C. for 6 hr. Samples were tested at both 0 and 6 hours.

MDCK cells = assay: viability of MDCK cell cultures by trypan blue exclusion; type: cell-based; conditions: 96 hour incubation, 0.5 μM to 10 μM, FIG. 9
Description: The activity of peptides of the invention as targeting moieties was tested in vitro in preliminary studies using cells lines expressing C6S. The nucleoside analog 3′ amino deoxythymidine (3′AdT) was conjugated to the amino-terminus of the peptide “RYK” (RYKvFIKYRh (SEQ ID NO:8)) using a single D-Glu residue (3′AdT-e-RYK).
Confluent cultures of MDCK were passaged at 1/20 dilution and exponentionally growing cells were incubated for 96 hours with concentrations of the nucleoside analog conjugates ranging from 0.5 μM to 10 μM. Viability was subsequently assessed using trypan blue exclusion.

[2] = system: heparan sulfate (HS), chondroitin-4-sulfate (C4S), keratin sulfate (KS), HA; assay: modified ELISA, binding to C6S compared with other proteoglycans; conditions: KS (FIG. 5), HS and HA (FIG. 6B)
Description: (§1) The binding of the nine-mer peptides of the invention to C6S as predicted by the models, in particular, as compared to the binding to other proteoglycans was tested using a modified ELISA protocol. ELISA plates were coated overnight with 1 mg/ml of heparin sulfate (HS), chondroitin-4-sulfate (C4S), chondroitin-6-sulfate (C6S) or keratin sulfate (KS) in PBS. The wells were then washed with PBS and incubated for 1 hour at room temperature with 1 mg/ml of an exemplary peptide of the invention having the sequence RYKvFIKYRh (“RYK-C6S”; SEQ ID NO:7) or a standard TAT peptide. The plates were then thoroughly washed with PBS and subsequently photographed with a LUMASCOPE™ luminescent microscope. Images were then quantified using the ImageJ software (FIG. 5).
(§2) The impact of sequence variation on specific binding was also investigated with select peptides using the above described modified ELISA.

[3] = system: chondroitin-6-sulfate (C6S); assay: modified ELISA, binding of peptides to plate-coated C6S; conditions: plates coated with 1 mg/ml C6S; 1 mg/ml peptide, 1 hour, room temperature; FIG. 5, 6A, 6B
Description: as §1
The same modified ELISA protocol was used to examine the impact on the specific binding to C6S by modifying the freely-selectable positions 2, 4, 6, 8 and (5 or 7).
as §2

In the case of `N=C(N)NCCC[C@H](NC(=O)[C@H](Cc1ccc(O)cc1)NC(=O)[C@H](CCCCN)NC(=O)[C@H](Cc1c[nH]c2ccccc12)NC(=O)[C@H](CO)NC(=O)CNC(=O)[C@H](CCCCN)NC(=O)[C@H](Cc1ccccc1)NC(=O)[C@@H](N)CCCNC(=N)N)C(=O)O` [RFKGSWKYR] (H-RFKGSWKYR-OH; N-terminus and C-terminus assumed), the “degradation in fetal calf serum” value [1] is reported as “completely degraded”.

In the case of `CC[C@H](C)[C@H](NC(=O)[C@H](Cc1ccccc1)NC(=O)[C@H](NC(=O)[C@H](CCCCN)NC(=O)[C@H](Cc1ccc(O)cc1)NC(=O)[C@@H](N)CCCNC(=N)N)C(C)C)C(=O)N[C@@H](CCCCN)C(=O)N[C@@H](Cc1ccc(O)cc1)C(=O)N[C@@H](CCCNC(=N)N)C(=O)N[C@H](Cc1c[nH]cn1)C(=O)O` [RYK-C6S, RYKvFIKYRh] (H-RYK[dV]FIKYR[dH]-OH; N-terminus and C-terminus assumed), the “degradation in fetal calf serum” value [1] is reported as “no degradation” and the remaining at 6 h ([1]; fetal calf serum, 6 hours) is reported as 100%.

For “D-linked conjugate: 3′AdT conjugated to the amino-terminus of the peptide RYK (RYKvFIKYRh) using a single D-Glu residue ({3'AdT}-[dE]RYK[dV]FIKYR[dH]; reading uncertain; also: printed as RYKvFIKYRh)”, the “concentration with substantial effects on viability” value (MDCK cells) was no less than 0.5 µM.

For RGKPRFYQR, the “selectivity of binding for C6S over other proteoglycans” value [2] was “either eliminated binding activity to any proteoglycan or eliminated the specificity to C6S”.

In the case of “RKKRRQRR (Artificial TAT peptide control) [standard TAT peptide]”, the “binding to C6S” value [3] is reported as “increases in binding that were likely non-selective”.

For RRRRRRRRR [pure arginine 9-mer], the “binding to C6S” value [3] was “increases in binding that were likely non-selective”.

With “RYFvRIKYR (RYF[dV]RIKYR) [control peptide, replacement of Lys3 with a Phe]” the “binding to C6S” value [3] was “eliminated binding to C6S”.

For “RYKvFIKPRh (RYK[dV]FIKPR[dH]) [control peptide with proline at position 8]”, the “binding to C6S” value [3] was “eliminated binding activity”.
